Source: patent US9693556B2, “Herbicidal pyridazinone derivatives” (SYNGENTA LIMITED, priority 2011, dated 2017)

Columns and labels:
Type in all cases: in vivo
Solanum nigrum (SOLNI) [1] = assay: Post-emergence herbicidal glasshouse test on Solanum nigrum; settings: post-emergence, 1000 g/h, evaluated after 13 days
Procedure: (§1) Seeds of a variety of test species are sown in standard soil in pots (Alopecurus myosuroides (ALOMY), Setaria faberi (SETFA), Echinochloa crus-galli (ECHCG), Solanum nigrum (SOLNI), Amaranthus retoflexus (AMARE), Ipomoea hederacea (IPOHE)). After cultivation for one day (pre-emergence) or after 8 days cultivation (post-emergence) under controlled conditions in a glasshouse (at 24/16° C., day/night; 14 hours light; 65% humidity), the plants are sprayed with an aqueous spray solution derived from the formulation of the technical active ingredient in acetone/water (50:50) solution containing 0.5% Tween 20 (polyoxyethelyene sorbitan monolaurate, CAS RN 9005-64-5). Compounds are applied at 1000 g/h. The test plants are then grown in a glasshouse under controlled conditions in a glasshouse (at 24/16° C., day/night; 14 hours light; 65% humidity) and watered twice daily. After 13 days for pre and post-emergence, the test is evaluated for the percentage herbicidal damage caused to the plant. The biological activities are shown in the following table on a five point scale (5=80-100% damage; 4=60-79% damage; 3=40-59% damage; 2=20-39% damage; 1=0-19% damage).

[2] = test system: Amaranthus retoflexus (AMARE); assay: Post-emergence herbicidal glasshouse test on Amaranthus retoflexus; settings: post-emergence, 1000 g/h, evaluated after 13 days
Procedure: as §1

[3] = test system: Alopecurus myosuroides (ALOMY); assay: Post-emergence herbicidal glasshouse test on Alopecurus myosuroides; settings: post-emergence, 1000 g/h, evaluated after 13 days
Procedure: as §1

[4] = test system: Ipomoea hederacea (IPOHE); assay: Pre-emergence herbicidal glasshouse test on Ipomoea hederacea; settings: pre-emergence, 1000 g/h, evaluated after 13 days
Procedure: as §1

Solanum nigrum (SOLNI) [5] = assay: Pre-emergence herbicidal glasshouse test on Solanum nigrum; settings: pre-emergence, 1000 g/h, evaluated after 13 days
Procedure: as §1

[6] = test system: Echinochloa crus-galli (ECHCG); assay: Pre-emergence herbicidal glasshouse test on Echinochloa crus-galli; settings: pre-emergence, 1000 g/h, evaluated after 13 days
Procedure: as §1

[7] = test system: Alopecurus myosuroides (ALOMY); assay: Pre-emergence herbicidal glasshouse test on Alopecurus myosuroides; settings: pre-emergence, 1000 g/h, evaluated after 13 days
Procedure: as §1

[8] = test system: Echinochloa crus-galli (ECHCG); assay: Post-emergence herbicidal glasshouse test on Echinochloa crus-galli; settings: post-emergence, 1000 g/h, evaluated after 13 days
Procedure: as §1

Setaria faberi (SETFA) [9] = assay: Pre-emergence herbicidal glasshouse test on Setaria faberi; settings: pre-emergence, 1000 g/h, evaluated after 13 days
Procedure: as §1

Setaria faberi (SETFA) [10] = assay: Post-emergence herbicidal glasshouse test on Setaria faberi; settings: post-emergence, 1000 g/h, evaluated after 13 days
Procedure: as §1

[11] = test system: Amaranthus retoflexus (AMARE); assay: Pre-emergence herbicidal glasshouse test on Amaranthus retoflexus; settings: pre-emergence, 1000 g/h, evaluated after 13 days
Procedure: as §1

[12] = test system: Ipomoea hederacea (IPOHE); assay: Post-emergence herbicidal glasshouse test on Ipomoea hederacea; settings: post-emergence, 1000 g/h, evaluated after 13 days
Procedure: as §1

| Structure (SMILES) | POST Application SOLNI herbicidal damage (five point scale) (Solanum nigrum (SOLNI) [1]) | POST Application AMARE herbicidal damage (five point scale) [2] | POST Application ALOMY herbicidal damage (five point scale) [3] | PRE Application IPOHE herbicidal damage (five point scale) [4] | PRE Application SOLNI herbicidal damage (five point scale) (Solanum nigrum (SOLNI) [5]) | PRE Application ECHCG herbicidal damage (five point scale) [6] | PRE Application ALOMY herbicidal damage (five point scale) [7] | POST Application ECHCG herbicidal damage (five point scale) [8] | PRE Application SETFA herbicidal damage (five point scale) (Setaria faberi (SETFA) [9]) | POST Application SETFA herbicidal damage (five point scale) (Setaria faberi (SETFA) [10]) | PRE Application AMARE herbicidal damage (five point scale) [11] | POST Application IPOHE herbicidal damage (five point scale) [12] | further results |
| --- | --- | --- | --- | --- | --- | --- | --- | --- | --- | --- | --- | --- | --- |
| Cc1cc(-c2cnn(C)c(=O)c2O)c(=O)n(-c2ccsc2)c1 [Compound 6.002] | 3 (3=40-59% damage) | 4 (4=60-79% damage) | 1 (1=0-19% damage) | 2 (2=20-39% damage) | 5 (5=80-100% damage) | 1 (1=0-19% damage) | 1 (1=0-19% damage) | 1 (1=0-19% damage) | 1 (1=0-19% damage) | 1 (1=0-19% damage) | 5 (5=80-100% damage) | 2 (2=20-39% damage) | – |
| CC(C)n1ncc(-c2c(Cl)cccc2Cl)c(O)c1=O [Compound 1.016] | 3 (3=40-59% damage) | 5 (5=80-100% damage) | 2 (2=20-39% damage) | 1 (1=0-19% damage) | 1 (1=0-19% damage) | 1 (1=0-19% damage) | 1 (1=0-19% damage) | 2 (2=20-39% damage) | 1 (1=0-19% damage) | 3 (3=40-59% damage) | 1 (1=0-19% damage) | 2 (2=20-39% damage) | – |
| CCS(=O)(=O)c1nc(C(F)(F)F)ccc1-c1cnn(C)c(=O)c1O [Compound 1.135] | 5 (5=80-100% damage) | 5 (5=80-100% damage) | 4 (4=60-79% damage) | 5 (5=80-100% damage) | 5 (5=80-100% damage) | 5 (5=80-100% damage) | 4 (4=60-79% damage) | 5 (5=80-100% damage) | 5 (5=80-100% damage) | 5 (5=80-100% damage) | 5 (5=80-100% damage) | 5 (5=80-100% damage) | – |
| Cn1ncc(-c2ccc(C#N)cc2S(C)(=O)=O)c(O)c1=O [Compound 1.141] | 5 (5=80-100% damage) | 5 (5=80-100% damage) | 5 (5=80-100% damage) | 5 (5=80-100% damage) | 5 (5=80-100% damage) | 5 (5=80-100% damage) | 5 (5=80-100% damage) | 5 (5=80-100% damage) | 5 (5=80-100% damage) | 5 (5=80-100% damage) | 5 (5=80-100% damage) | 5 (5=80-100% damage) | – |
| CS(=O)(=O)c1ccc(-c2cnn(C3CC3)c(=O)c2O)c(Cl)c1C1=NOCC1 [Compound 1.158] | – | – | – | – | – | – | – | – | – | – | – | – | herbicidal damage, POST Application SOLNI (Solanum nigrum (SOLNI) [1]; five point scale): 5 (5=80-100% damage); herbicidal damage, POST Application AMARE ([2]; five point scale): 5 (5=80-100% damage); herbicidal damage, POST Application ALOMY ([3]; five point scale): 5 (5=80-100% damage); herbicidal damage, PRE Application IPOHE ([4]; five point scale): 3 (3=40-59% damage); herbicidal damage, PRE Application SOLNI (Solanum nigrum (SOLNI) [5]; five point scale): 4 (4=60-79% damage); herbicidal damage, PRE Application ECHCG ([6]; five point scale): 5 (5=80-100% damage); herbicidal damage, PRE Application ALOMY ([7]; five point scale): 3 (3=40-59% damage); herbicidal damage, POST Application ECHCG ([8]; five point scale): 5 (5=80-100% damage); herbicidal damage, PRE Application SETFA (Setaria faberi (SETFA) [9]; five point scale): 3 (3=40-59% damage); herbicidal damage, POST Application SETFA (Setaria faberi (SETFA) [10]; five point scale): 5 (5=80-100% damage); herbicidal damage, PRE Application AMARE ([11]; five point scale): 5 (5=80-100% damage); herbicidal damage, POST Application IPOHE ([12]; five point scale): 5 (5=80-100% damage) |
